Measurements published in patent publication US8952024B2, “Herbicidal pyrimidone derivatives” (E I du Pont de Nemours and Company, priority 2009, dated 2015).

Columns and labels:
Assay type in all cases: in vivo
[1] = system: morningglory (Ipomoea spp.); test: Test A pre-/postemergence plant response
Method in brief: (§1)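 Greenhouse trial, ~10 days. Soil (loam/sand) sprayed preemergence after seeding; emerged plants (1–2 leaf, 2–10 cm) sprayed postemergence in parallel. Response = visual injury vs untreated control, 0–100.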

[2] = system: pigweed (Amaranthus retroflexus); test: Test A pre-/postemergence plant response
Method in brief: as §1

rice (Oryza sativa) = test: Test B flooded paddy test; conditions: for Plant response rating, Flood, Rice: 250 g ai/ha, flooded paddy test, visual rating on 0 to 100 scale (0 no effect, 100 complete control) after 13 to 15 days; for Plant response rating, Rice: Flood (flooded paddy test), 13 to 15 days; for Rice plant response rating: Flood, 31 g ai/ha, scale 0 to 100 (0 no effect, 100 complete control)
Method in brief: (§2)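 Seedlings reaching 2 leaves are flooded 3 cm deep; test material is delivered to that water, which stays at the same depth. Plants remain in a greenhouse 13–15 days and are then scored by eye versus controls from 0 to 100.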

[3] = system: ducksalad (Heteranthera limosa); test: Test B flooded paddy test; conditions: for Plant response rating, Flood, Ducksalad: 250 g ai/ha, flooded paddy test, visual rating on 0 to 100 scale (0 no effect, 100 complete control) after 13 to 15 days; for Plant response rating, Ducksalad: Flood (flooded paddy test), 13 to 15 days; for Ducksalad plant response rating: Flood, 31 g ai/ha, scale 0 to 100 (0 no effect, 100 complete control)
Method in brief: as §2

[4] = system: umbrella sedge (Cyperus difformis); test: Test B flooded paddy test; conditions: for Plant response rating, Flood, Sedge, Umbrella: 250 g ai/ha, flooded paddy test, visual rating on 0 to 100 scale (0 no effect, 100 complete control) after 13 to 15 days; for Plant response rating, Sedge, Umbrella: Flood (flooded paddy test), 13 to 15 days; for Sedge, Umbrella plant response rating: Flood, 31 g ai/ha, scale 0 to 100 (0 no effect, 100 complete control)
Method in brief: as §2

[5] = system: barnyardgrass (Echinochloa crus-galli); test: Test B flooded paddy test; conditions: for Plant response rating, Flood, Barnyardgrass: 250 g ai/ha, flooded paddy test, visual rating on 0 to 100 scale (0 no effect, 100 complete control) after 13 to 15 days; for Plant response rating, Barnyardgrass: Flood (flooded paddy test), 13 to 15 days; for Barnyardgrass plant response rating: Flood, 31 g ai/ha, scale 0 to 100 (0 no effect, 100 complete control)
Method in brief: as §2

[6] = system: wheat (Triticum aestivum); test: Test B pre-/postemergence plant response; conditions: for Wheat plant response rating (0 to 100 scale): 62 g ai/ha, postemergence, 0 is no effect, 100 is complete control; for Plant response rating, Wheat: Postemergence
Method in brief: (§3)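 Visual injury, 0–100 scale (100 = complete control), rated against controls after 13 to 15 days in greenhouse. Pre-emergence: seeds in loam/sand soil, treated at planting. Post-emergence: 1- to 4-leaf plants (2 to 18 cm) in peat/vermiculite medium. Compounds formulated in non-phytotoxic solvent with surfactant.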

[7] = system: giant foxtail (Setaria faberii); test: Test B pre-/postemergence plant response; conditions: for Foxtail, Giant plant response rating (0 to 100 scale): 62 g ai/ha, postemergence, 0 is no effect, 100 is complete control; for Plant response rating, Foxtail, Giant: Postemergence
Method in brief: as §3

[8] = system: johnsongrass (Sorghum halepense); test: Test B pre-/postemergence plant response; conditions: for Johnsongrass plant response rating (0 to 100 scale): 62 g ai/ha, postemergence, 0 is no effect, 100 is complete control; for Plant response rating, Johnsongrass: Postemergence
Method in brief: as §3

[9] = system: morningglory (Ipomoea coccinea); test: Test B pre-/postemergence plant response; conditions: for Morningglory plant response rating (0 to 100 scale): 62 g ai/ha, postemergence, 0 is no effect, 100 is complete control; for Plant response rating, Morningglory: Postemergence
Method in brief: as §3

[10] = system: woolly cupgrass (Eriochloa villosa); test: Test B pre-/postemergence plant response; conditions: for Cupgrass, Woolly plant response rating (0 to 100 scale): 62 g ai/ha, postemergence, 0 is no effect, 100 is complete control; for Plant response rating, Cupgrass, Woolly: Postemergence
Method in brief: as §3

[11] = system: goosegrass (Eleusine indica); test: Test B pre-/postemergence plant response; conditions: for Goosegrass plant response rating (0 to 100 scale): 62 g ai/ha, postemergence, 0 is no effect, 100 is complete control; for Plant response rating, Goosegrass: Postemergence
Method in brief: as §3

[12] = Postemergence, 125 g ai/ha, 0 to 100 scale where 0 is no effect and 100 is complete control
[13] = Postemergence, 500 g ai/ha, 0 to 100 scale, 0 = no effect, 100 = complete control, approx. ten days
[14] = Preemergence, 500 g ai/ha, visual injury, 0 to 100 scale (0 no effect, 100 complete control), approx. ten days
[15] = Preemergence, 125 g ai/ha, 0 to 100 scale, 0 = no effect, 100 = complete control
[16] = 62 g ai/ha, scale of 0 to 100 where 0 is no effect and 100 is complete control
[17] = 125 g ai/ha, scale 0 to 100, 0 is no effect, 100 is complete control
[18] = 31 g ai/ha, 0 to 100 scale (0 no effect, 100 complete control)
[19] = 125 g ai/ha, scale 0 to 100 (0 no effect, 100 complete control)
[20] = 250 g ai/ha, scale 0 to 100 (0 no effect, 100 complete control), 13 to 15 days

O=C1CCCC(O)=C1C(=O)c1cnc(-c2ccccc2)n(C2CCOCC2)c1=O [Compound 129]
Plant response rating, Morningglory [1, 12]: 100 | Plant response rating, Morningglory [1, 13]: 100 | Plant response rating, Morningglory [1, 14]: 90 | Plant response rating, Pigweed [2, 12]: 100 | Plant response rating, Pigweed [2, 13]: 100 | Plant response rating, Pigweed [2, 15]: 100 | Plant response rating, Pigweed [2, 14]: 100 | Plant response rating, Flood, Rice (rice (Oryza sativa)): 30 | Plant response rating, Rice (rice (Oryza sativa); [16]): 0 | Plant response rating, Rice (rice (Oryza sativa); [17]): 0 | Rice plant response rating (rice (Oryza sativa)): 0 | Plant response rating, Flood, Ducksalad [3]: 100 | Plant response rating, Ducksalad [3, 16]: 90 | Plant response rating, Ducksalad [3, 17]: 90 | Ducksalad plant response rating [3]: 0 | Plant response rating, Flood, Sedge, Umbrella [4]: 60 | Plant response rating, Sedge, Umbrella [4, 16]: 0 | Plant response rating, Sedge, Umbrella [4, 17]: 60 | Sedge, Umbrella plant response rating [4]: 0 | Plant response rating, Flood, Barnyardgrass [5]: 60 | Plant response rating, Barnyardgrass [5, 16]: 0 | Plant response rating, Barnyardgrass [5, 17]: 10 | Barnyardgrass plant response rating [5]: 0 | Wheat plant response rating (0 to 100 scale) ([6]; 13 to 15 days): 0 | Plant response rating, Wheat [6, 18]: 0 | Plant response rating, Wheat [6, 19]: 0 | Plant response rating, Wheat [6, 20]: 0 | Foxtail, Giant plant response rating (0 to 100 scale) ([7]; 13 to 15 days): 85 | Plant response rating, Foxtail, Giant [7, 18]: 70 | Plant response rating, Foxtail, Giant [7, 19]: 90 | Plant response rating, Foxtail, Giant [7, 20]: 98 | Johnsongrass plant response rating (0 to 100 scale) ([8]; 13 to 15 days): 45 | Plant response rating, Johnsongrass [8, 18]: 40 | Plant response rating, Johnsongrass [8, 19]: 70 | Plant response rating, Johnsongrass [8, 20]: 85 | Morningglory plant response rating (0 to 100 scale) ([9]; 13 to 15 days): 90 | Plant response rating, Morningglory [9, 18]: 90 | Plant response rating, Morningglory [9, 19]: 90 | Plant response rating, Morningglory [9, 20]: 90 | Cupgrass, Woolly plant response rating (0 to 100 scale) ([10]; 13 to 15 days): 85 | Plant response rating, Cupgrass, Woolly [10, 18]: 80 | Plant response rating, Cupgrass, Woolly [10, 19]: 85 | Plant response rating, Cupgrass, Woolly [10, 20]: 85 | Goosegrass plant response rating (0 to 100 scale) ([11]; 13 to 15 days): 85 | Plant response rating, Goosegrass [11, 18]: 85 | Plant response rating, Goosegrass [11, 19]: 90 | Plant response rating, Goosegrass [11, 20]: 95

O=C1CCCC(O)=C1C(=O)c1cnc(-c2ccccc2)n(C2CCCCCC2)c1=O [Compound 130]
Plant response rating, Morningglory [1, 12]: 100 | Plant response rating, Morningglory [1, 13]: 100 | Plant response rating, Morningglory [1, 15]: 10 | Plant response rating, Morningglory [1, 14]: 80 | Plant response rating, Pigweed [2, 12]: 100 | Plant response rating, Pigweed [2, 13]: 100 | Plant response rating, Pigweed [2, 15]: 90 | Plant response rating, Pigweed [2, 14]: 100 | Plant response rating, Flood, Rice (rice (Oryza sativa)): 25 | Plant response rating, Rice (rice (Oryza sativa); [16]): 0 | Plant response rating, Rice (rice (Oryza sativa); [17]): 0 | Rice plant response rating (rice (Oryza sativa)): 0 | Plant response rating, Flood, Ducksalad [3]: 100 | Plant response rating, Ducksalad [3, 16]: 80 | Plant response rating, Ducksalad [3, 17]: 80 | Ducksalad plant response rating [3]: 60 | Plant response rating, Flood, Sedge, Umbrella [4]: 100 | Plant response rating, Sedge, Umbrella [4, 16]: 60 | Plant response rating, Sedge, Umbrella [4, 17]: 75 | Sedge, Umbrella plant response rating [4]: 40 | Plant response rating, Flood, Barnyardgrass [5]: 85 | Plant response rating, Barnyardgrass [5, 16]: 0 | Plant response rating, Barnyardgrass [5, 17]: 0 | Barnyardgrass plant response rating [5]: 0 | Wheat plant response rating (0 to 100 scale) ([6]; 13 to 15 days): 5 | Plant response rating, Wheat [6, 18]: 5 | Plant response rating, Wheat [6, 19]: 5 | Plant response rating, Wheat [6, 20]: 10 | Foxtail, Giant plant response rating (0 to 100 scale) ([7]; 13 to 15 days): 90 | Plant response rating, Foxtail, Giant [7, 18]: 90 | Plant response rating, Foxtail, Giant [7, 19]: 98 | Plant response rating, Foxtail, Giant [7, 20]: 98 | Johnsongrass plant response rating (0 to 100 scale) ([8]; 13 to 15 days): 60 | Plant response rating, Johnsongrass [8, 18]: 60 | Plant response rating, Johnsongrass [8, 19]: 80 | Plant response rating, Johnsongrass [8, 20]: 80 | Morningglory plant response rating (0 to 100 scale) ([9]; 13 to 15 days): 95 | Plant response rating, Morningglory [9, 18]: 95 | Plant response rating, Morningglory [9, 19]: 100 | Plant response rating, Morningglory [9, 20]: 100 | Cupgrass, Woolly plant response rating (0 to 100 scale) ([10]; 13 to 15 days): 85 | Plant response rating, Cupgrass, Woolly [10, 18]: 80 | Plant response rating, Cupgrass, Woolly [10, 19]: 85 | Plant response rating, Cupgrass, Woolly [10, 20]: 90 | Goosegrass plant response rating (0 to 100 scale) ([11]; 13 to 15 days): 85 | Plant response rating, Goosegrass [11, 18]: 85 | Plant response rating, Goosegrass [11, 19]: 95 | Plant response rating, Goosegrass [11, 20]: 95
